≈ marks a conversion by molar mass, not a printed value. Counter-ions that a name gives are not always drawn. Like-named read-outs stand apart in the source and are kept apart here.
Assays:
[1] = Acute toxicity (LD50) by oral administration in mice; format: in vivo
Candida albicans [2] = experiment: In vitro antifungal activity, MIC (Method A); format: cell-based; settings: 3 days, 27° C.; for MIC: Candida albicans, 72 h; for Antifungal activity MIC: 1×10^5 cells/ml, pH 7.0
Protocol: (§1) The in vitro antifungal activities of representative compounds of the present invention were measured by determining the minimal inhibitory concentration (MIC), which is the concentration of an antifungal at which no fungal growth can be observed.
(§2) The MICs were determined by the microbroth dilution procedure according to NCCLS with the following minor modifications (Galgiani et al., Antimicrob. Agents Chemother., 33, 731 (1989). The medium was solidified with 0.2% low melting point agarose and buffered to pH 7.0 with 0.25%: K2 HPO4 in Yeast Nitrogen Base (Difco Lab.). Inoculum size was 1×10^5 cells/ml, and incubation was carried out for 3 days at 27° C. The MICs ([…]) are shown in Table 1. The reference compound is compound (IA) in U.S. Pat. No. 4,952,604. The compounds used are identified by reference to the Examples in which they were prepared.
(§3) The in vitro antifungal activities of the representative compounds of the present invention shown in Table 1 and Table 2 were measured by determining the minimal inhibitory concentrations (MIC: Method A) or 80% growth inhibition concentration (IC80 : Method B) respectively. MIC is defined as the concentration of an antifungal at which growth of fungi is not observed and IC80 is the concentration where cell turbidity measured at OD630 is reduced by 80%.
(§4) Antifungal activities were determined by either method A or B (see below) using microtest plates according NCCLS with minor modifications (Galgiani et at., Antimicrob. Agents Chemother. 33, 731 (1989)).
(§5) (Method A) The medium was solidified with 0.2% low melting point agarose and buffered to pH 7.0 with 0.25% K2 HPO4 in Yeast Nitrogen Base (Difco Lab.). Inoculum size was 1×10^5 cells/ml, and incubation was carried out for 3 days at 27° C. The reference compound is compound (IA) in U.S. Pat. No. 4,952,604.

Cryptococcus neoformans = experiment: In vitro antifungal activity, MIC (Method A); format: cell-based; settings: 3 days, 27° C.; for MIC: Cryptococcus neoformans, 72 h; for Antifungal activity MIC: 1×10^5 cells/ml, pH 7.0
Protocol: as §1, §2, §3, §4, §5

Aspergillus fumigatus = experiment: In vitro antifungal activity, MIC (Method A); format: cell-based; settings: 3 days, 27° C.; for MIC: Aspergillus fumigatus, 72 h; for Antifungal activity MIC: 1×10^5 cells/ml, pH 7.0
Protocol: as §1, §2, §3, §4, §5

C. neoformans = experiment: In vitro antifungal activity, IC80 (Method B); format: cell-based; settings: Cryptococcus neoformans
Protocol: as §3, §4
(§6) (Method B) The medium for yeast was buffered to pH 7.0 with 0.25% K2 HPO4 in Yeast Nitrogen Base (Difco Lab.). For the filamentous fungi, 0.2% of low melting point agar was supplemented to the above medium. Inoculum size was 1×10^4 cells/ml, and incubation was carried out for 1-2 days at 27° C. Fluconazole (Pfizer) was used as reference.

Candida albicans [3] = experiment: In vitro antifungal activity, IC80 (Method B); format: cell-based
Protocol: as §3, §4, §6

A. fumigatus = experiment: In vitro antifungal activity, IC80 (Method B); format: cell-based; settings: Aspergillus fumigatus, read-out: Antifungal activity IC80
Protocol: as §3, §4, §6

[4] = pH 7, C. neoformans CY1057, 1×10^4 cells/ml, 1-2 days, 27° C., read-out: Antifungal activity IC80
[5] = pH 7, C. neoformans CY1059, 1×10^4 cells/ml, 1-2 days, 27° C., read-out: Antifungal activity IC80
[6] = pH 7, Candida albicans CY1002, 1×10^4 cells/ml, 1-2 days, 27° C., read-out: Antifungal activity IC80
[7] = pH 7, Candida albicans CY1005, 1×10^4 cells/ml, 1-2 days, 27° C., read-out: Antifungal activity IC80
[8] = pH 7, Candida albicans CY3003, 1×10^4 cells/ml, 1-2 days, 27° C., read-out: Antifungal activity IC80
[9] = A. fumigatus CF1003, 1×10^4 cells/ml, 1-2 days, 27° C., 0.2% agar
[10] = A. fumigatus CF1004, 1×10^4 cells/ml, 1-2 days, 27° C., 0.2% agar

| Molecule | LD50 ([1]; mouse, in vivo, read-out: LD50) | IC80 (C. neoformans; [4]) | IC80 (C. neoformans; [5]) | IC80 (Candida albicans [3]; [6]) | IC80 (Candida albicans [3]; [7]) | IC80 (Candida albicans [3]; [8]) | IC80 (A. fumigatus; [9]) | IC80 (A. fumigatus; [10]) | other results |
| --- | --- | --- | --- | --- | --- | --- | --- | --- | --- |
| CCCCCCC/C=C/[C@@H]1OC[C@H](C)[C@H](OC)[C@H]1OC(=O)CN [Example 4, (2S,3R,4S,5S)-4-methoxy-5-methyl-2-[(E)-1-nonenyl]-tetrahydro-2H-pyran-3-ylglycinate trifluoroacetic acid salt] | > 500 mg/kg |  |  |  |  |  |  |  | MIC (Candida albicans [2]; pH 7, Candida albicans CY1002, 1×10^5 cells/ml): 100 µg/mL; MIC (Candida albicans [2]; pH 7, Candida albicans CY1005, 1×10^5 cells/ml): 50 µg/mL; MIC (Candida albicans [2]; pH 7, Candida albicans CY3003, 1×10^5 cells/ml): 50 µg/mL; MIC (Cryptococcus neoformans; pH 7, Cryptococcus neoformans CY1057, 1×10^5 cells/ml): 3.13 µg/mL; MIC (Cryptococcus neoformans; pH 7, Cryptococcus neoformans CY1059, 1×10^5 cells/ml): 6.25 µg/mL; MIC (Cryptococcus neoformans; pH 7, Cryptococcus neoformans CY1061, 1×10^5 cells/ml): 12.5 µg/mL; MIC (Aspergillus fumigatus; pH 7, Aspergillus fumigatus CF1003, 1×10^5 cells/ml): 3.13 µg/mL; MIC (Aspergillus fumigatus; pH 7, Aspergillus fumigatus CF1004, 1×10^5 cells/ml): 3.13 µg/mL; MIC (Aspergillus fumigatus; pH 7, Aspergillus fumigatus CF1023, 1×10^5 cells/ml): 1.56 µg/mL |
| (2S,3R,4S,5S)-5-methyl-2-[(E)-1-nonenyl]-4-propoxy-tetrahydro-2H-pyran-3-ylglycinate trifluoroacetic acid salt [Example 21] |  |  |  |  |  |  |  |  | LD50 [1]: more than 500 mg/kg; Antifungal activity MIC (Candida albicans [2]; Candida albicans CY1002): 100 µg/mL; Antifungal activity MIC (Candida albicans [2]; Candida albicans CY1005): 50 µg/mL; Antifungal activity MIC (Candida albicans [2]; Candida albicans CY3003): 100 µg/mL; Antifungal activity MIC (Cryptococcus neoformans; Cryptococcus neoformans CY1057): 12.5 µg/mL; Antifungal activity MIC (Cryptococcus neoformans; Cryptococcus neoformans CY1059): 12.5 µg/mL; Antifungal activity MIC (Cryptococcus neoformans; Cryptococcus neoformans CY1061): 25 µg/mL; Antifungal activity MIC (Aspergillus fumigatus; Aspergillus fumigatus CF1003): 12.5 µg/mL; Antifungal activity MIC (Aspergillus fumigatus; Aspergillus fumigatus CF1004): 6.25 µg/mL; Antifungal activity MIC (Aspergillus fumigatus; Aspergillus fumigatus CF1023): 12.5 µg/mL |
| CCCCCCC/C=C/[C@@H]1OC[C@H](C)C=C1Cn1ccnc1 [Example 60, 1-[[(2S,5R)-5,6-dihydro-5-methyl-2-[(E)-1-nonenyl]-2H-pyran-3-yl]methyl]-1H-imidazole] | > 500 mg/kg |  |  |  |  |  |  |  |  |
| CO[C@@H]1[C@@H](Cn2cncn2)[C@H](CCc2ccc(N3CCCC3)cc2)CCC1(C)C [Example 82, 1-[[(1R,2R,6R)-2-methoxy-3,3-dimethyl-6-[2-(p-pyrrolidinophenyl)ethyl]cyclohexyl]methyl]-1H,1,2,4-triazole] |  | > 200 µg/mL | > 200 µg/mL | 0.15 µg/mL (≈ 0.378 µM) | 0.35 µg/mL (≈ 0.883 µM) | 0.17 µg/mL (≈ 0.429 µM) | > 200 µg/mL | > 200 µg/mL |  |
| OC(Cn1cncn1)(Cn1cncn1)c1ccc(F)cc1F [FCZ, Fluconazole, reference compound] |  |  |  |  |  |  |  |  | IC80 (C. neoformans; pH 7, read-out: Antifungal activity IC80, C. neoformans CY1057, 1×10^4 cells/ml, 1-2 days, 27° C.): 5.2 µg/mL (≈ 17 µM); IC80 (C. neoformans; pH 7, read-out: Antifungal activity IC80, C. neoformans CY1059, 1×10^4 cells/ml, 1-2 days, 27° C.): 8.6 µg/mL (≈ 28.1 µM); IC80 (Candida albicans [3]; pH 7, read-out: Antifungal activity IC80, Candida albicans CY1002, 1×10^4 cells/ml, 1-2 days, 27° C.): 1.1 µg/mL (≈ 3.59 µM); IC80 (Candida albicans [3]; pH 7, read-out: Antifungal activity IC80, Candida albicans CY1005, 1×10^4 cells/ml, 1-2 days, 27° C.): 1.2 µg/mL (≈ 3.92 µM); IC80 (Candida albicans [3]; pH 7, read-out: Antifungal activity IC80, Candida albicans CY3003, 1×10^4 cells/ml, 1-2 days, 27° C.): 1 µg/mL (≈ 3.27 µM); IC80 (A. fumigatus): 150 µg/mL (≈ 490 µM) |
| CCCCCCCCO[C@@H]1CCC(C)(C)[C@H](OC)[C@@H]1Cn1cncn1 [Example 69, 1-[[(1R,2R,6R)-2-methoxy-3,3-dimethyl-6-octyloxycyclohexyl]methyl]-1H-1,2,4-triazole] | > 500 mg/kg |  |  |  |  |  |  |  |  |
| CO[C@@H]1[C@@H](Cn2cncn2)[C@H](CCc2ccc(C(F)(F)F)cc2)CCC1(C)C [Example 77] |  | 0.39 µg/mL (≈ 0.986 µM) | 3.2 µg/mL (≈ 8.09 µM) | 0.16 µg/mL (≈ 0.405 µM) | 0.18 µg/mL (≈ 0.455 µM) | 0.093 µg/mL (≈ 0.235 µM) | > 200 µg/mL | > 200 µg/mL |  |
| CO[C@@H]1[C@@H](Cn2cncn2)[C@H](CCc2ccc(N(C)C)cc2)CCC1(C)C [Example 71] |  | 1.2 µg/mL (≈ 3.24 µM) | 1.9 µg/mL (≈ 5.13 µM) | 0.03 µg/mL (≈ 0.081 µM) | 0.094 µg/mL (≈ 0.254 µM) | 0.036 µg/mL (≈ 0.0972 µM) | 32 µg/mL (≈ 86.4 µM) | 37 µg/mL (≈ 99.9 µM) |  |
| COc1ccc(CC[C@@H]2CCC(C)(C)[C@H](OC)[C@H]2NC(=O)CN)cc1 [Example 55, (1R,2S,3S)-2-[(aminoacetyl)amino]-4-47dimethyl-3-methoxy-1-[2-(4-methoxyphenyl)ethyl]cyclohexane trifluoroacetic acid salt] |  | 170 µg/mL | 150 µg/mL | 49 µg/mL | 69 µg/mL | 50 µg/mL | > 200 µg/mL | > 200 µg/mL |  |

From US5719291A, “Cyclohexane derivatives” (Hoffmann-La Roche Inc., priority 1991, dated 1998)
